Tested on: Co-Kultur-System
Experiment: Collagen neosynthesis in co-culture system (2D fibroblast culture with 3D epidermis model insert), P1 NP secreted into the medium
Format: cell-based
Details: unbehandelt = 107
Excerpt: Zum Nachweis der Kollagen-Neusynthese wurde ein Co-Kultur-System verwendet, das aus einer zweidimensionalen Fibroblasten-Kultur besteht, auf die in einem Insert ein dreidimensionales Epidermismodell aufgesetzt wurde. Über das Nährmedium kann ein Stoffaustausch zwischen den Fibroblasten und den Keratinocyten des Epidermismodells erfolgen.
Als Kontrollen für die Syntheseinduktion wurden Retinsäure und Retinol eingesetzt.

SMILES: CC(C)(C)C(=O)C(Oc1ccc(Cl)cc1)n1ccnc1 (stereo not drawn) [Climbazol, Imidazolyl-1-(4-chlorophenoxy)-3,3-dimethylbutane-2-one]
- P1 NP (Climbazol 0,005%): 135 µg/mL

SMILES: CC1=C(/C=C/C(C)=C/C=C/C(C)=C/CO)C(C)(C)CCC1 [Retinol]
- P1 NP (Retinol 5µM): 146 µg/mL

SMILES: CC1=C(/C=C/C(C)=C/C=C/C(C)=C/C(=O)O)C(C)(C)CCC1 [Retinsäure]
- P1 NP (Retinsäure 5µM): 200 µg/mL
